# Test results taken from US11154480B2, “Shaping keratin fibres using a sugar” (The Procter & Gamble Company, priority 2013, dated 2021).
# Experiments:
# [1] = Benedict's Test for reducing sugars; assay type: physicochemical
# Text: As used herein, “reducing sugar” means any sugar that either has an aldehyde group or is capable of forming an aldehyde group in solution through isomerism, and that gives a positive result in the Benedict's test. An aldehyde group is —C(═O)H. The aldehyde group is important in view of reacting with and crosslinking the hair. The Benedict's test involves employment of the Benedict's solution. The Benedict's solution is available from Sigma Aldrich as ‘Benedict's Reagent’, which comprises sodium carbonate, copper sulphate pentahydrate and 2,5-difluorotoluene. In the Benedict's test, 1 mL of Benedict's solution is added to a 20 mL of 5% aqueous solution comprising a dissolved test compound. Benedict's solution contains blue copper(II) ions (Cu^2+). The solution is heated to 80° C. for 15 min and the resulting colour change is noted. The cupric ion of the Benedict's solution is reduced to cuprous ion by the aldehyde of the sugar. A positive Benedict's test result is confirmed with a change in colour as cupric ions (Cu^2+) are converted to cuprous ions i.e. reduced to copper(I) ions (Cu^+). These are precipitated as red copper(I) oxide which is insoluble in water. The test is also designed for longer heating time and higher temperature to note any colour change. The solution may range in colour (with increasing amounts of reducing sugar) from green, through yellow and orange, to red. […] The wavelength of light reflected by the solution will change with the colour. In at least one embodiment, a positive Benedict's test result is when the solution emits light not peaking with a wavelength in the range of 450 nm to 495 nm. In at least one embodiment, a positive Benedict's test result is when the solution emits light peaking with a wavelength in the range of 620 nm to 750 nm. This can be measured using a spectrophotometer.
# In the art, the Benedict's reagent is used as a test for the presence of reducing sugars. This includes all monosaccharides and many disaccharides, including lactose and maltose. Even more generally, Benedict's test will detect the presence of aldehydes, and alpha-hydroxy-ketones, including those that occur in certain ketoses. Thus, although fructose, a ketose, is not strictly a reducing sugar, it is an alpha-hydroxy-ketone, it gives a positive test because it is converted to the aldoses glucose and mannose by the base in the reagent. The copper sulphate in Benedict's solution reacts with reducing sugars. One litre of Benedict's reagent can be prepared from 100 g of anhydrous sodium carbonate, 173 g of sodium citrate and 17.3 g of copper(II) sulfate pentahydrate. Benedict's Reagent provides a quantitative test for reducing sugars along with qualitative test. The colour of the obtained precipitate gives an idea about the quantity of sugar present in the solution. A greenish precipitate indicates about 0.5% concentration; yellow precipitate indicates 1% concentration; orange indicates 1.5% and red indicates 2% or higher concentration. A positive result in the Benedict's test can be recognised for a compound by a 5% (weight/weight) solution of compound in water as a red colouring. The aldehyde group of the sugar allows the sugar to act as a reducing agent, for example in the Benedict's test.
# [2] = as known in the art; converted to aldoses by the base in the reagent; cited from earlier work
# [3] = 80° C., 15 min, 5% aqueous solution of test compound
"Assessment of sugars using the Benedict's Test [1, 3]","Assessment of sugars using the Benedict's Test ([1]; 100° C., 40 min)",SMILES,Benedict's test result [2]
Positive,Positive,O=C[C@H](O)[C@@H](O)[C@H](O)CO [Xylose],
Negative,Positive,OC[C@H]1O[C@@](CO)(O[C@H]2O[C@H](CO)[C@@H](O)[C@H](O)[C@H]2O)[C@@H](O)[C@@H]1O [Sucrose],

# The next lines start with the molecule.
SMILES,"Assessment of sugars using the Benedict's Test [1, 3]","Assessment of sugars using the Benedict's Test ([1]; 100° C., 40 min)",Benedict's test result [2]
CO[C@H]1OC(CO)[C@H](O)[C@@H](O)[C@@H]1O (stereo partly shown) [Methyl glucoside],Negative,Positive,
O=C(CO)[C@@H](O)[C@H](O)[C@H](O)CO [Fructose],Positive,Positive,positive
O=C[C@H](O)[C@H](O)[C@H](O)CO [Ribose],Positive,Positive,
O=C[C@@H](O)[C@H](O)[C@H](O)CO [Arabinose],Positive,Positive,
